Assay results from PubChem BioAssay (NCI).
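96-well plates; 48 h exposure; 5 concentrations. Endpoints by linear interpolation between flanking doses. Not reached: highest tested concentration assigned. TGI denotes the concentration required for complete inhibition of growth.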

What was measured:
Test in all cases: NCI anticancer screen, dose series, 48 h
A498 renal = test system: A498 renal
A549 NSCLC = test system: A549 NSCLC
ACHN renal = test system: ACHN renal
CAKI-1 renal = test system: CAKI-1 renal
CCRF-CEM leukemia = test system: CCRF-CEM leukemia
COLO 205 colon = test system: COLO 205 colon
DU-145 prostate = test system: DU-145 prostate
EKVX NSCLC = test system: EKVX NSCLC
HCC-2998 colon = test system: HCC-2998 colon
HCT-116 colon = test system: HCT-116 colon
HCT-15 colon = test system: HCT-15 colon
HL-60(TB) leukemia = test system: HL-60(TB) leukemia
HOP-62 NSCLC = test system: HOP-62 NSCLC
HS 578T breast = test system: HS 578T breast
IGROV1 ovarian = test system: IGROV1 ovarian
K-562 leukemia = test system: K-562 leukemia
KM12 colon = test system: KM12 colon
LOX IMVI melanoma = test system: LOX IMVI melanoma
M14 melanoma = test system: M14 melanoma
MALME-3M melanoma = test system: MALME-3M melanoma
MCF7 breast = test system: MCF7 breast
MDA-MB-231 breast = test system: MDA-MB-231 breast
MDA-MB-435 = test system: MDA-MB-435
MDA-N = test system: MDA-N
MOLT-4 leukemia = test system: MOLT-4 leukemia
NCI-H23 lung = test system: NCI-H23 lung
NCI-H460 lung = test system: NCI-H460 lung
NCI/ADR-RES ovarian = test system: NCI/ADR-RES ovarian
OVCAR-4 ovarian = test system: OVCAR-4 ovarian
OVCAR-8 ovarian = test system: OVCAR-8 ovarian
PC-3 prostate = test system: PC-3 prostate
RPMI-8226 leukemia = test system: RPMI-8226 leukemia
SF-268 CNS = test system: SF-268 CNS
SF-539 CNS = test system: SF-539 CNS
SK-MEL-28 melanoma = test system: SK-MEL-28 melanoma
SK-MEL-5 melanoma = test system: SK-MEL-5 melanoma
SK-OV-3 ovarian = test system: SK-OV-3 ovarian
SN12C renal = test system: SN12C renal
SNB-75 CNS = test system: SNB-75 CNS
SW-620 colon = test system: SW-620 colon
T-47D breast = test system: T-47D breast
TK-10 renal = test system: TK-10 renal
U251 CNS = test system: U251 CNS
UACC-257 melanoma = test system: UACC-257 melanoma
UACC-62 melanoma = test system: UACC-62 melanoma
786-0 renal = test system: 786-0 renal
HT29 colon = test system: HT29 colon
NCI-H226 lung = test system: NCI-H226 lung
NCI-H522 lung = test system: NCI-H522 lung
OVCAR-3 ovarian = test system: OVCAR-3 ovarian
OVCAR-5 ovarian = test system: OVCAR-5 ovarian
RXF 393 renal = test system: RXF 393 renal
SF-295 CNS = test system: SF-295 CNS
SK-MEL-2 melanoma = test system: SK-MEL-2 melanoma
SNB-19 CNS = test system: SNB-19 CNS
UO-31 renal = test system: UO-31 renal

Measured: TGI

COc1ccc(C(CC(=O)c2cccs2)C(=O)c2ccc3c(c2)OCO3)cc1 (centres undefined)
not listed: 786-0 renal | HT29 colon | NCI-H226 lung | NCI-H522 lung | OVCAR-3 ovarian | OVCAR-5 ovarian | RXF 393 renal | SF-295 CNS | SK-MEL-2 melanoma | SNB-19 CNS | UO-31 renal
> 100 µM: all other assays above

CN1N=C(c2ccncc2)OC1c1ccc(C(F)(F)F)cc1 (centres undefined)
87.8 µM: SNB-75 CNS
not listed: CAKI-1 renal | MALME-3M melanoma
> 100 µM: all other assays above
